Experiments:
Format in all cases: in vivo
Myzus persicae [1] = assay: Example B5: Myzus persicae (green peach aphid), feeding/contact activity; conditions: 144 h, application rate of 200 ppm, 6 days after infestation
Experimental: Example B5: Myzus persicae (Green Peach Aphid):Feeding/Contact Activity
Sunflower leaf discs were placed onto agar in a 24-well microtiter plate and sprayed with aqueous test solutions prepared from 10,000 ppm DMSO stock solutions. After drying, the leaf discs were infested with an aphid population of mixed ages. The samples were assessed for mortality 6 days after infestation.

Chilo suppressalis = assay: Example B1: Chilo suppressalis (striped rice stemborer), artificial diet, L2 larvae; conditions: 144 h, application rate of 200 ppm, 6 days after infestation, read-out: control in at least one of the three categories (mortality, anti-feedant effect, or growth inhibition)
Outline: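 L2 larvae (6-8 per well) were placed on dried artificial diet that had been dosed with aqueous dilutions of 10,000 ppm DMSO stock solutions. After 6 days, control was credited if mortality, antifeedant effect or growth inhibition was higher than in untreated samples.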

Diabrotica balteata = assay: Example B2: Diabrotica balteata (corn root worm), maize sprouts, L2 larvae; conditions: 96 h, application rate of 200 ppm, 4 days after infestation, read-out: control in at least one of the two categories (mortality or growth inhibition)
Experimental: Example B2: Diabrotica balteata (Corn Root Worm)
Maize sprouts placed onto an agar layer in 24-well microtiter plates were treated with aqueous test solutions prepared from 10,000 ppm DMSO stock solutions by spraying. After drying, the plates were infested with L2 larvae (6 to 10 per well). The samples were assessed for mortality and growth inhibition in comparison to untreated samples 4 days after infestation.
The following compounds gave an effect of at least 80% control in at least one of the two categories (mortality or growth inhibition) at an application rate of 200 ppm: […]

Spodoptera littoralis = assay: Example B9: Spodoptera littoralis (Egyptian cotton leaf worm), cotton leaf discs, L1 larvae; conditions: foliar, 72 h, application rate of 200 ppm, 3 days after infestation, read-out: control in at least one of the three categories (mortality, anti-feedant effect, or growth inhibition)
Outline: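 Five L1 larvae placed on sprayed, dried cotton leaf discs; spray solutions aqueous, from 10,000 ppm DMSO stocks. Control given when mortality, anti-feedant effect or growth inhibition exceeds untreated samples at 3 days.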

Myzus persicae [2] = assay: Example B7: Myzus persicae (green peach aphid), intrinsic activity, sucrose solution 24-well; conditions: 120 h, application rate of 12.5 ppm, 5 days after infestation, read-out: control (mortality)
Description: Example B7: Myzus persicae (Green Peach Aphid). Intrinsic Activity
Test compounds prepared from 10,000 ppm DMSO stock solutions were applied by pipette into 24-well microtiter plates and mixed with sucrose solution. The plates were closed with a stretched Parafilm. A plastic stencil with 24 holes was placed onto the plate and infested pea seedlings were placed directly on the Parafilm. The infested plate was closed with a gel blotting paper and another plastic stencil and then turned upside down. The samples were assessed for mortality 5 days after infestation.
The following compounds gave an effect of at least 80% control at an application rate of 12.5 ppm: […]

Plutella xylostella = assay: Example B8: Plutella xylostella (diamond back moth), artificial diet 24-well, eggs; conditions: 192 h, application rate of 200 ppm, 8 days after infestation, read-out: effect in at least one of the two categories (mortality or growth inhibition)
Outline: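 Plutella eggs placed onto dried, compound-treated artificial diet, the aqueous test solutions diluted from 10,000 ppm DMSO stocks. Eight days post-infestation, larvae rated for mortality and growth inhibition relative to untreated controls.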

COc1cc(Cl)c(NC(=O)N[C@@H](C)c2ncnn2-c2ncccn2)cc1Cl [Example P204, 1-(2,5-dichloro-4-methoxy-phenyl)-3-[(1S)-1-(2-pyrimidin-2-yl-1,2,4-triazol-3-yl)ethyl]urea]
≥ 80%: mortality at 200 ppm (Myzus persicae [1])

C[C@H](NC(=O)Nc1cc(C(F)(F)F)ncn1)c1ncnn1-c1ncccn1 [Example P32, 1-[(1S)-1-(2-pyrimidin-2-yl-1,2,4-triazol-3-yl)ethyl]-3-[6-(trifluoromethyl)pyrimidin-4-yl]urea]
≥ 80%: mortality at 200 ppm (Myzus persicae [1])

CC(C)Oc1cc(NC(=O)N[C@@H](C)c2ncnn2-c2ncccn2)c(Cl)cc1Cl [Example P236, 1-(2,4-dichloro-5-isopropoxy-phenyl)-3-[(1S)-1-(2-pyrimidin-2-yl-1,2,4-triazol-3-yl)ethyl]urea]
≥ 80%: percent control (mortality, anti-feedant effect or growth inhibition) at 200 ppm (Chilo suppressalis) | percent control (mortality or growth inhibition) at 200 ppm (Diabrotica balteata) | percent control (mortality, anti-feedant effect or growth inhibition) at 200 ppm (Spodoptera littoralis) | mortality at 12.5 ppm (Myzus persicae [2]) | percent effect (mortality or growth inhibition) at 200 ppm (Plutella xylostella)

COc1ccc(COc2cc(NC(=O)N[C@@H](C)c3ncnn3-c3ncccn3)c(Cl)cc2Cl)cc1F [Example P168, 1-[2,4-dichloro-5-[(3-fluoro-4-methoxy-phenyl)methoxy]phenyl]-3-[(1S)-1-(2-pyrimidin-2-yl-1,2,4-triazol-3-yl)ethyl]urea]
≥ 80%: mortality at 200 ppm (Myzus persicae [1])

CC(NC(=O)Nc1cc(OC(F)(F)C(F)F)c(Cl)cc1Cl)c1nccnc1-c1ncccn1 (stereo not drawn) [Example P238, 1-[2,4-dichloro-5-(1,1,2,2-tetrafluoroethoxy)phenyl]-3-[1-(3-pyrimidin-2-ylpyrazin-2-yl)ethyl]urea]
≥ 80%: percent control (mortality, anti-feedant effect or growth inhibition) at 200 ppm (Chilo suppressalis) | percent control (mortality or growth inhibition) at 200 ppm (Diabrotica balteata) | percent control (mortality, anti-feedant effect or growth inhibition) at 200 ppm (Spodoptera littoralis) | mortality at 12.5 ppm (Myzus persicae [2]) | percent effect (mortality or growth inhibition) at 200 ppm (Plutella xylostella)

Cc1nc([C@H](C)NC(=O)Nc2cc(OC(F)(F)C(F)F)c(Cl)cc2Cl)n(-c2ncccn2)n1 [Example P276, 1-[2,4-dichloro-5-(1,1,2,2-tetrafluoroethoxy)phenyl]-3-[(1S)-1-(5-methyl-2-pyrimidin-2-yl-1,2,4-triazol-3-yl)ethyl]urea]
≥ 80%: percent control (mortality, anti-feedant effect or growth inhibition) at 200 ppm (Chilo suppressalis) | percent control (mortality or growth inhibition) at 200 ppm (Diabrotica balteata) | percent control (mortality, anti-feedant effect or growth inhibition) at 200 ppm (Spodoptera littoralis) | mortality at 12.5 ppm (Myzus persicae [2]) | percent effect (mortality or growth inhibition) at 200 ppm (Plutella xylostella)

C[C@H](NC(=O)Nc1cc(C(F)(F)F)c(Cl)cc1Br)c1ncnn1-c1ncccn1 [Example P48, 1-[2-bromo-4-chloro-5-(trifluoromethyl)phenyl]-3-[(1S)-1-(2-pyrimidin-2-yl-1,2,4-triazol-3-yl)ethyl]urea]
≥ 80%: percent control (mortality, anti-feedant effect or growth inhibition) at 200 ppm (Chilo suppressalis) | percent control (mortality or growth inhibition) at 200 ppm (Diabrotica balteata) | percent control (mortality, anti-feedant effect or growth inhibition) at 200 ppm (Spodoptera littoralis) | mortality at 12.5 ppm (Myzus persicae [2]) | percent effect (mortality or growth inhibition) at 200 ppm (Plutella xylostella)

C[C@H](NC(=O)Nc1cc(C(F)(F)F)c(Cl)cc1Cl)c1ncnn1-c1ncccn1 [Example P178, 1-[2,4-dichloro-5-(trifluoromethyl)phenyl]-3-[(1S)-1-(2-pyrimidin-2-yl-1,2,4-triazol-3-yl)ethyl]urea]
≥ 80%: percent control (mortality, anti-feedant effect or growth inhibition) at 200 ppm (Chilo suppressalis) | percent control (mortality or growth inhibition) at 200 ppm (Diabrotica balteata) | percent control (mortality, anti-feedant effect or growth inhibition) at 200 ppm (Spodoptera littoralis) | mortality at 12.5 ppm (Myzus persicae [2]) | percent effect (mortality or growth inhibition) at 200 ppm (Plutella xylostella)

C[C@H](NC(=O)Nc1cc(OC(F)(F)C(F)C(F)(F)F)c(Cl)cc1F)c1ncnn1-c1ncccn1 (stereo partly drawn) [Example P215, 1-[4-chloro-2-fluoro-5-(1,1,2,3,3,3-hexafluoropropoxy)phenyl]-3-[(1S)-1-(2-pyrimidin-2-yl-1,2,4-triazol-3-yl)ethyl]urea]
≥ 80%: percent control (mortality, anti-feedant effect or growth inhibition) at 200 ppm (Chilo suppressalis) | percent control (mortality or growth inhibition) at 200 ppm (Diabrotica balteata) | percent control (mortality, anti-feedant effect or growth inhibition) at 200 ppm (Spodoptera littoralis) | mortality at 12.5 ppm (Myzus persicae [2]) | percent effect (mortality or growth inhibition) at 200 ppm (Plutella xylostella)

From patent US20240108006A1, “PESTICIDALLY ACTIVE HETEROAROMATIC COMPOUNDS” (SYNGENTA CROP PROTECTION AG, priority 2021, published 2024)
